From ChEMBL document CHEMBL3301555, “MMV Malaria Box screening in pLDH viability assay against Plasmodium falciparum gametocytes”

Legend:
Plasmodium falciparum [1] = experiment: (§1) MMV: Measure of pLDH activity as indication of parasite viability. Gametocytogenesis of 3D7 Plasmodium falciparum strain was induced in vitro and asexual parasites were depleted with N-acetylglucosamine. Gametocytes were treated with dihydroartemisinin, epoxomicin, methylene blue, primaquine, puromycin or chloroquine in 96-well plates and the pLDH activity was evaluated using a modified Makler protocol. Mosquito infectivity was measured by the standard membrane feeding assay.; format: functional; set-up: concentration or dose not given beside the values
Plasmodium falciparum [2] = experiment: as §1, with “assay. The IC50 value was extrapolated as the concentration that induced a 50% inhibition of gametocyte viability.” for “assay.”; format: functional, organism-based

| SMILES | Growth Inhibition (Plasmodium falciparum [1]) | IC50 (Plasmodium falciparum [2]) |
| --- | --- | --- |
| CN1CCN(c2ccc(Nc3c4ccccc4nc4ccccc34)cc2)CC1 | 62.7432% | 732 nM |
| O=C(Nc1ccc(Cl)c(Cl)c1)Nc1ccc(Cl)c(Cl)c1 | 10.3704% | – |
| COc1ccc(Nc2nc(N/N=C/c3ccc(O)cc3)nc(Nc3ccc([N+](=O)[O-])cc3)n2)cc1 | 24.1364% | – |
| CN(C)CCCNc1c2ccccc2nc2ccccc12 | 9.2618% | 3140 nM |
| COc1ccc(-c2cc3c(nn2)-c2ccccc2C3=O)cc1 | 49.5345% | 5010 nM |
| N=c1n(CCN2CCCCC2)c2ccccc2n1CC(=O)c1ccc(Cl)c(Cl)c1 | 13.8938% | – |
| Nc1nc(Nc2cccc(F)c2)nc2ccccc12 | 18.202% | – |
| COc1ccc(/C=C2/SC(=Nc3ccccc3)NC2=O)cc1 | 42.24% | – |
| COc1ccc(-c2nc(N3CCN(C(=O)C4CCCCC4)CC3)c3c4c(sc3n2)CCCC4)cc1 | -0.9006% | – |
| O=C(NC1CCN(Cc2ccccc2)CC1)c1cc2nc(-c3ccc(Cl)s3)cc(C(F)(F)F)n2n1 | 6.5116% | – |
| Cc1sc(NC(=O)c2ccccc2)c(C(c2cccs2)N2CCN(c3ccccc3)CC2)c1C (stereo not drawn) | 0.692% | – |
| Cc1sc(NC(=O)c2ccco2)c(C(c2cccnc2)N2CCC(Cc3ccccc3)CC2)c1C (stereo not drawn) | 4.6056% | – |
| COc1cc(C(=O)Nc2nc3c(cc4c5c(cccc53)CC4)s2)cc(OC)c1OC | 2.6754% | – |
| COc1ccc(CCN2C(=O)c3[nH]nc(-c4cc(Cl)c(C)cc4O)c3C2c2ccccc2F)cc1 (stereo not drawn) | 16.338% | – |
| N#Cc1nc(Cc2cccc3ccccc23)oc1N1CCN(C(c2ccccc2)c2ccccc2)CC1 | -13.1388% | – |
| O=C(NNc1cc(N2CCCC2)nc(N2CCCC2)n1)c1ccccc1 | 2.419% | – |
| CC(C)(C)CC(C)(C)NCC(O)COc1ccc(Cl)cc1Cl (stereo not drawn) | 54.9615% | 5620 nM |
| Cc1cccc(-n2ncc3c(O)nc(-n4nc(C)cc4NC(=O)c4cc5ccccc5o4)nc32)c1 | 60.253% | 1620 nM |
| COC(=O)c1ccc(Cl)c2c1C1C=CCC1C(c1cccc3ccccc13)N2 (stereo not drawn) | -3.8852% | – |
| O=C(CCc1ccccc1)c1ccccc1OCC(O)CN1CCCCC1 (stereo not drawn) | 24.7266% | – |
| Cc1ccc(Nc2nc(-c3ccccn3)cs2)cc1 | 62.3104% | 1380 nM |
| OC1=C2C(=Nc3ccccc3SC2c2ccccc2)c2ccccc21 (stereo not drawn) | 34.196% | – |
| Cl.N=c1n(CCN2CCCCC2)c2ccccc2n1CC(O)c1cccc(Br)c1 (stereo not drawn) | 59.1366% | 3930 nM |

| SMILES | Growth Inhibition (Plasmodium falciparum [1]) | IC50 (Plasmodium falciparum [2]) |
| --- | --- | --- |
| COc1cc(C(=O)Nc2ccc(-c3nc4ccccc4[nH]3)cc2)cc(OC)c1OC | 13.7592% | – |
| CCOc1ccc(N2C(N)=NC(N)=NC2(C)C)cc1.Cl | -4.3826% | – |
| COc1cccc(Nc2nc(N)c3ccccc3n2)c1.Cl | 17.598% | – |
| Cc1ccc(C(=O)c2oc3ccc4c(C)cc(=O)oc4c3c2C)cc1 | 1.1304% | – |
| COc1cccc(NC(=O)[C@H](C(C)C)n2c(=O)[nH]c3ccccc3c2=O)c1 | 63.4258% | 2750 nM |
| CCCCCCc1cc2cc(-c3csc(C=Cc4ccccc4)n3)c(=O)oc2cc1O | 20.6338% | – |
| CN(C)CCCNCc1ccc(-c2ccc(F)c(Cl)c2)o1.Cl | 63.9166% | 2210 nM |
| O=C(CCl)NCCOc1ccc(Cl)cc1Cl | 8.2288% | – |
| Oc1ccc(-c2nc(-c3ccc4oc5ccc(-c6[nH]c(-c7ccc(O)cc7)nc6-c6ccccc6)cc5c4c3)c(-c3ccccc3)[nH]2)cc1 | 21.6376% | – |
| Cc1sc2ncnc(Sc3nc4ccccc4[nH]3)c2c1C | 79.0368% | 2640 nM |
| COc1ccc(C(=O)NC(c2ccc(Cl)cc2Cl)c2cc(Cl)c3cccnc3c2O)cc1 (stereo not drawn) | 50.4754% | 3810 nM |
| O=C(NC(c1ccccc1)c1ccc2cccnc2c1O)c1ccccc1 (stereo not drawn) | 59.5194% | 2650 nM |
| CCCCNc1nc(NC(C)(C)C)nc(NC(C)(C)C)n1 | 40.1594% | – |
| Cl.c1ccc2c(NCCCCCCNc3c4c(nc5ccccc35)CCCC4)c3c(nc2c1)CCCC3 | 77.595% | 2390 nM |
| COc1ccc(CNC(=O)c2cc3c(=O)n4ccccc4nc3n(CCc3ccccc3)c2=N)cc1 | 29.2402% | – |
| CCN(CC)CCn1c(=N)n(CC(O)c2ccc(Cl)c(Cl)c2)c2ccccc21.Cl (stereo not drawn) | 75.2902% | 2080 nM |
| O=C(NCCCN1CCC(N2CCCCC2)CC1)C1=Cc2cc(Br)ccc2OC1 | 57.2548% | 1440 nM |
| COc1ccc(CCn2c(=N)c(C(=O)NCc3cccnc3)cc3c(=O)n4cccc(C)c4nc32)cc1 | 4.0678% | – |
| CC(=O)c1sc(NC(=O)Nc2ccc(C)cc2C)nc1C | 12.9136% | – |
| Cl.Cn1c(=O)n(C)c2cc(CNCCNc3ccnc4cc(Cl)ccc34)ccc21 | 35.6028% | – |
| Cn1c(C(=O)c2cccc3ccccc23)nc2ccccc21 | -3.612% | – |
| CCOc1ccc2nc(C)cc(Nc3ccc(N(C)C)cc3)c2c1.Cl | 13.9954% | – |
| COc1ccc(Nc2cc(C)nc(NCc3ccccc3)n2)cc1 | 8.4962% | – |

| SMILES | Growth Inhibition (Plasmodium falciparum [1]) | IC50 (Plasmodium falciparum [2]) |
| --- | --- | --- |
| COc1ccc(C=C2SC(Nc3ccc(F)cc3)=NC2=O)c(OC)c1 | 32.1464% | – |
| Oc1ccc2ccccc2c1CNc1nc2ccccc2[nH]1 | 8.4186% | – |
| O=C(Nc1ccc(-c2nc3ccccc3[nH]2)cc1)c1ccc(Cl)c(Cl)c1 | 11.2736% | – |
| COc1ccc(C2NCCc3c2[nH]c2ccccc32)cc1CN1CCN(c2ccc(F)cc2)CC1.Cl (stereo not drawn) | 75.07% | 3410 nM |
| O=C1c2ccc3c4c(ccc(c24)C(=O)N1CCCCO)C(=O)N(CCCCO)C3=O | 33.201% | – |
| O=C(Nc1ccc(-c2nc3cc(NC(=O)c4ccc(Cl)cc4)ccc3[nH]2)cc1)c1ccc(Cl)cc1 | 18.844% | – |
| OCCNc1nc(Nc2ccc(Cl)c(Cl)c2)nc2ccccc12 | 18.8816% | – |
| Nc1ccc(-c2nc3cc(Oc4ccc(Oc5ccc6[nH]c(-c7ccc(N)cc7)nc6c5)cc4)ccc3[nH]2)cc1 | 21.5644% | – |
| CCOC(=O)c1cnc2ccc(OC)cc2c1Nc1ccc(N2CCN(C)CC2)cc1 | 5.5888% | – |
| Cc1cc(N(C)C)nc(Nc2ccc(NC(=O)Nc3ccccc3)cc2)n1 | 16.1034% | – |
| Cl.Clc1cc(Br)ccc1-c1ccc(CNCC2CCNCC2)o1 | 86.2708% | 407 nM |
| Cc1ccc2cc3c(N)c4c(C)ccc(C)c4nc3nc2c1 | 80.372% | 2720 nM |
| COc1ccccc1C(=O)ON=C(N)Cc1cccc2ccccc12 | 8.274% | – |
| CC(C)CCNCC(O)Cn1c2ccccc2c2ccccc21.Cl (stereo not drawn) | 62.6796% | 2830 nM |
| CN1C=C(c2ccc3ccccc3n2)C(c2c[nH]c3ccccc23)c2ccccc21 (stereo not drawn) | 12.6514% | – |
| COc1ccccc1NC1=C(N2CCCCC2)C(=O)c2ccccc2C1=O | 50.0502% | 236 nM |
| COc1cc(-c2nc(-c3ccccc3)c(-c3ccccc3)[nH]2)cc(OC)c1O | 13.9122% | – |
| Cc1ccc(Nc2nc(N)c3ccccc3n2)cc1Cl | 23.2734% | – |
| Cc1cc(C)c2nc(N3CCC(C(=O)NCCCN4CCC(N5CCCCC5)CC4)CC3)sc2c1 | 59.2216% | 1930 nM |
| CCc1ccc(CNCC(O)c2ccccc2)cc1.Cl (stereo not drawn) | 26.7% | – |
| COc1cccc(C(=O)NC(c2ccc(C)cc2)c2cc(Cl)c3cccnc3c2O)c1 (stereo not drawn) | 50.8652% | 3090 nM |
| CC(C)OCc1cc(CN2CCN(c3cccc(Cl)c3)CC2)c(O)c2ncccc12 | 56.857% | 3280 nM |
| CSc1ccccc1C(=O)Nc1nc(-c2ccccn2)cs1 | 29.8315% | 4610 nM |

| SMILES | Growth Inhibition (Plasmodium falciparum [1]) | IC50 (Plasmodium falciparum [2]) |
| --- | --- | --- |
| Br.CCn1c2c(c(=N)c3c1CCC3)CCCC2 | -4.7115% | – |
| CCCOCc1cc(CN2CCN(c3cccc(Cl)c3)CC2)c(O)c2ncccc12 | 80.5% | 3800 nM |
| COc1cc(CNCCc2ccc(Cl)cc2)cc(OC)c1O | 17.1102% | – |
| Cc1ccc2c(C)nc(Nc3nc(C)cc(-c4ccccc4)n3)nc2c1 | -3.9148% | – |
| CCOc1ccc(Nc2ccnc3cc(Cl)ccc23)cc1 | 2.6298% | – |
| Oc1c(CN2CCN(c3ccccc3F)CC2)cc(Br)c2cccnc12 | 75.8386% | 1900 nM |
| Oc1ccc(Br)cc1CN1CCN(Cc2ccc(Cl)cc2)CC1 | 44.4912% | – |
| CCCc1c(C)nc2ccc(Br)cc2c1O | 51.0245% | 8900 nM |
| CCOc1ccc2nc(C)cc(Nc3ccc(Br)cc3)c2c1 | -8.7645% | – |
| CC1=C(CC(=O)c2cccc([N+](=O)[O-])c2)C(=O)c2ccccc2C1=O | 70.075% | 902 nM |
| COc1cc2c3cc1Oc1c(OC)c(OC)cc4c1C(Cc1ccc(O)c(c1)Oc1ccc(cc1)CC3N(C)CC2)N(C)CC4.Cl (stereo not drawn) | 37.697% | – |
| Br.Cc1ccc(C)c(-c2csc(Nc3ccc(C)c(C)c3)n2)c1 | -6.2508% | – |
| CN(C)c1ccc(N=Cc2ccc(N3CCOCC3)cc2)cc1 | 78.9978% | 4160 nM |
| CCOC(=O)c1cnc2ccc(OC)cc2c1NCc1ccccc1 | 11.9674% | – |
| CCCn1c(=N)c(C(=O)NC2CCCCC2)cc2c(=O)n3cccc(C)c3nc21 | 2.4486% | – |
| CCOC(=O)C1=CN(C)C=C(C(=O)OCC)C1c1cc(Br)c(OCC)c(OC)c1 | 20.4206% | – |
| CC(C)(C)c1ccc(C2CC3=Nc4ccccc4N(C(=O)c4ccccc4Cl)C(c4ccc(F)cc4)C3=C(O)C2)cc1 (stereo not drawn) | 12.8628% | – |
| CN1CCN(c2nc(Nc3ccc(O)cc3)nc3ccccc23)CC1.Cl | 11.7422% | – |
| Nc1ccn([C@@H]2O[C@H](CO)[C@@H](O)[C@H]2O)c(=O)n1 [CYTIDINE] | 13.5248% | – |
| O=C(Nc1cccc(C2=NCCN2)c1)Nc1cccc(C2=NCCN2)c1 [IMIDOCARB] | 24.1816% | – |
